Assay results from patent US20030064380A1, “Anergy-regulated molecules” (The Center For Blood Research, Inc., priority 2001, published 2003).

System: D5 Th1 T cell line
Experiment: nucleic acid expression profile of D5 Th1 T cell line stimulated with 500 nM ionomycin, 1 μM CsA plus ionomycin or 20 nM PMA plus ionomycin; 11K chip, first replicate
Assay type: cell-based, murine
Design: expression level of Msa.15983.0_f_at / expression level of Msa.1669.0_f_at / expression level of Msa.18713.0_g_at / expression level of D86609_s_at / expression level of TC19211_at / expression level of TC21156_at / expression level of TC24045_at / expression level of TC30384_g_at / expression level of TC3225_at / expression level of TC38978_at / expression level of TC39080_at / expression level of TC17495_at: unit not given here
Description: D5 or primary T cells from NFAT1−/− or wild type DO11.10 transgenic mice were stimulated for 2, 6 or 16 hours with 500 nM ionomycin, 20 nM PMA plus 500 nM ionomycin, or 1 μM CsA plus 500 nM ionomycin. Total RNA was isolated with an RNeasy kit (QIAGEN). Ten μg of total RNA was quantitatively amplified and biotin-labeled as described (Byrne et al., (2000) “Preparation of mRNA for Expression Monitoring” Current Protocols in Molecular Biology (John Wiley & Sons, Inc.) pp. 22.22.21-22.22.13). Hybridization to GeneChips® (Affymetrix) displaying probes for 11,000 mouse genes/ESTs was performed at 40° C. overnight in a mix that included 10 μg fragmented RNA, 6× SSPE, 0.005% Triton X-100 and 100 μg/ml herring sperm DNA in a total volume of 200 μl. Chips were washed, stained with SA-PE and read using an Affymetrix GeneChip® scanner and accompanying gene expression software. Labeled bacterial RNAs of known concentration were spiked into each chip hybridization mix to generate an internal standard curve, allowing normalization between chips and conversion of raw hybridization intensity values to mRNA frequency (mRNA molecules per million).
Nucleic acid expression profiles were obtained from a T cell line at multiple time points and in various T cell states. The D5 Th1 T cell line was stimulated in three different ways: 1) ionomycin alone (e.g., causing the regulatory factor NFAT to move from the cytoplasm to the nucleus); 2) ionomycin+PMA (e.g., causing both NFAT and the transcription factor AP-1 to enter the nucleus); 3) ionomycin +cyclosporin A (CsA) (e.g., preventing NFAT from entering the nucleus in response to ionomycin). […] Cells were stimulated for 0, 2, 6, and 16 hours. RNA was isolated and analyzed on a nucleic acid chip with probes that monitor the expression of 11,000 nucleic acids located at unique addresses. The experiment was done twice (i.e., with two replicates, Rep. 1 and Rep. 2). Nucleic acid expression at the 2, 6 and 16 hour timepoints was compared to nucleic acid expression at 0 hours.
The nucleic acid expression data was stored in a computer database. A database query was used to identify all nucleic acids that were deemed “increasing” or “decreasing” in response to ionomycin (relative to the 0 hour sample) in at least one timepoint in Rep. 1, and the nucleic acids were also deemed “increasing” or “decreasing” in response to ionomycin in Rep. 2.
To test the hypothesis that NFAT in the absence of AP-1 and NFKB induced a genetic program of anergy, genes induced in D5 T cells by ionomycin stimulation alone were evaluated (FIGS. 1, 2 and 6). Samples from D5 cells stimulated with ionomycin plus CsA, which blocks anergy induction, and ionomycin plus PMA, which pharmacologically mimic complete stimulation through the TCR and CD28 were included. RNA was prepared from unstimulated D5 T cells and from cells stimulated for 2, 6 or 16 h under these three conditions, and gene transcription profiles were evaluated using Affymetrix oligonucleotide arrays (FIG. 6A).

C[C@H](CCC(=O)O)C[C@H](C)C[C@H](C)C(=O)/C=C(\O)[C@H](C)C[C@H](C)C/C=C/[C@@H](C)[C@@H](O)[C@@H](C)[C@@H](O)C[C@@H]1CC[C@@](C)([C@H]2CC[C@@](C)([C@@H](C)O)O2)O1 [Ionomycin, ionomycin]
expression level of D86609_s_at (2 h): 48
expression level of ET63436_at (2 h): 149
expression level of MIP1-B_at (2 h): 265.5
expression level of Msa.11439.0_s_at (2 h): 37
expression level of Msa.15983.0_f_at (2 h): 40
expression level of Msa.1669.0_f_at (2 h): 33
expression level of Msa.18713.0_g_at (2 h): 63
expression level of Msa.21745.0_s_at (2 h): 9
expression level of TC3225_at (2 h): 41
expression level of TC14671_g_at (2 h): 15
expression level of TC16364_at (2 h): 38
expression level of TC16828_at (2 h): 13
expression level of TC17132_at (2 h): 41
expression level of TC17495_at (2 h): 10
expression level of TC17558_at (2 h): 28
expression level of TC18221_at (2 h): 6
expression level of TC19211_at (2 h): 21
expression level of TC21156_at (2 h): 34
expression level of TC23346_s_at (2 h): 8
expression level of TC23450_s_at (2 h): 20
expression level of TC24045_at (2 h): 26
expression level of TC24067_at (2 h): 8
expression level of TC25965_at (2 h): 19
expression level of TC27326_g_at (2 h): 40
expression level of TC29889_at (2 h): 17
expression level of TC30384_g_at (2 h): 77
expression level of TC30935_at (2 h): 30
expression level of TC30992_s_at (2 h): 14
expression level of TC31681_at (2 h): 52
expression level of TC33206_at (2 h): 20
expression level of TC33833_at (2 h): 19
expression level of TC34186_at (2 h): 19
expression level of TC36089_at (2 h): 145
expression level of TC36583_at (2 h): 26
expression level of TC37631_at (2 h): 38
expression level of TC38094_at (2 h): 13
expression level of TC38978_at (2 h): 9
expression level of TC39012_at (2 h): 47
expression level of TC39080_at (2 h): 7
expression level of TC39762_at (2 h): 17
expression level of TC40487_g_at (2 h): 14
expression level of TC41014_at (2 h): 9
expression level of U44731_s_at (2 h): 80
expression level of X67914_s_at (2 h): 59
expression level of Z31202_s_at (2 h): 17
expression level of aa144045_s_at (2 h): 46
expression level of aa174748_at (2 h): 55
expression level of c81206_rc_at (2 h): 23
expression level of k00083_s_at (2 h): 54
expression level of x12531_s_at (2 h): 81
expression level of D86609_s_at (6 h): 21
expression level of ET63436_at (6 h): 82
expression level of MIP1-B_at (6 h): 102
expression level of Msa.11439.0_s_at (6 h): 31
expression level of Msa.15983.0_f_at (6 h): 33
expression level of Msa.1669.0_f_at (6 h): 38
expression level of Msa.18713.0_g_at (6 h): 35
expression level of Msa.21745.0_s_at (6 h): 6
expression level of TC3225_at (6 h): 44
expression level of TC14671_g_at (6 h): 19
expression level of TC16364_at (6 h): 42
expression level of TC16828_at (6 h): 48
expression level of TC17132_at (6 h): 54
expression level of TC17495_at (6 h): 9
expression level of TC17558_at (6 h): 26
expression level of TC18221_at (6 h): 8
expression level of TC19211_at (6 h): 17
expression level of TC21156_at (6 h): 33
expression level of TC23346_s_at (6 h): 11
expression level of TC23450_s_at (6 h): 12
expression level of TC24045_at (6 h): 21
expression level of TC24067_at (6 h): 23
expression level of TC25965_at (6 h): 18
expression level of TC27326_g_at (6 h): 33
expression level of TC29889_at (6 h): 15
expression level of TC30384_g_at (6 h): 73
expression level of TC30935_at (6 h): 27
expression level of TC30992_s_at (6 h): 4
expression level of TC31681_at (6 h): 28
expression level of TC33206_at (6 h): 8
expression level of TC33833_at (6 h): 8
expression level of TC34186_at (6 h): 26
expression level of TC36089_at (6 h): 122
expression level of TC36583_at (6 h): 20
expression level of TC37631_at (6 h): 27
expression level of TC38094_at (6 h): 7
expression level of TC38978_at (6 h): 9
expression level of TC39012_at (6 h): 45
expression level of TC39080_at (6 h): 14
expression level of TC39762_at (6 h): 41
expression level of TC40487_g_at (6 h): 12
expression level of TC41014_at (6 h): 15
expression level of U44731_s_at (6 h): 26
expression level of X67914_s_at (6 h): 62
expression level of Z31202_s_at (6 h): 30
expression level of aa144045_s_at (6 h): 39
expression level of aa174748_at (6 h): 23
expression level of c81206_rc_at (6 h): 16
expression level of k00083_s_at (6 h): 32
expression level of x12531_s_at (6 h): 34
expression level of D86609_s_at (16 h): 20
expression level of ET63436_at (16 h): 86
expression level of MIP1-B_at (16 h): 119
expression level of Msa.11439.0_s_at (16 h): 34
expression level of Msa.15983.0_f_at (16 h): 17
expression level of Msa.1669.0_f_at (16 h): 35
expression level of Msa.18713.0_g_at (16 h): 28
expression level of Msa.21745.0_s_at (16 h): 6
expression level of TC3225_at (16 h): 23
expression level of TC14671_g_at (16 h): 13
expression level of TC16364_at (16 h): 34
expression level of TC16828_at (16 h): 30
expression level of TC17132_at (16 h): 32
expression level of TC17495_at (16 h): 12
expression level of TC17558_at (16 h): 23
expression level of TC18221_at (16 h): 11
expression level of TC19211_at (16 h): 12
expression level of TC21156_at (16 h): 16
expression level of TC23346_s_at (16 h): 13
expression level of TC23450_s_at (16 h): 13
expression level of TC24045_at (16 h): 15
expression level of TC24067_at (16 h): 15
expression level of TC25965_at (16 h): 16
expression level of TC27326_g_at (16 h): 29
expression level of TC29889_at (16 h): 11
expression level of TC30384_g_at (16 h): 57
expression level of TC30935_at (16 h): 22
expression level of TC30992_s_at (16 h): 6
expression level of TC31681_at (16 h): 18
expression level of TC33206_at (16 h): 6
expression level of TC33833_at (16 h): 6
expression level of TC34186_at (16 h): 13
expression level of TC36089_at (16 h): 75
expression level of TC36583_at (16 h): 18
expression level of TC37631_at (16 h): 26
expression level of TC38094_at (16 h): 7
expression level of TC38978_at (16 h): 12
expression level of TC39012_at (16 h): 35
expression level of TC39080_at (16 h): 14
expression level of TC39762_at (16 h): 31
expression level of TC40487_g_at (16 h): 8
expression level of TC41014_at (16 h): 12
expression level of U44731_s_at (16 h): 17
expression level of X67914_s_at (16 h): 51
expression level of Z31202_s_at (16 h): 22
expression level of aa144045_s_at (16 h): 33
expression level of aa174748_at (16 h): 22
expression level of c81206_rc_at (16 h): 15
expression level of k00083_s_at (16 h): 35
expression level of x12531_s_at (16 h): 97
